{"source": "patent US7153869B2", "about": "“Substituted amino acids as erythropoietin mimetics” (priority 1998, dated 2006)", "target": "T1, EBP-Ig (N-terminal 225 amino acids of the human EPO receptor joined to an Ig heavy chain) (Homo sapiens, UniProt P19235)", "T1 construct": "Ig heavy chain (fusion partner); made in house; host or cells: NSO cells (secreted into conditioned media)", "T1 sequence (P19235 25-250 limits assumed)": "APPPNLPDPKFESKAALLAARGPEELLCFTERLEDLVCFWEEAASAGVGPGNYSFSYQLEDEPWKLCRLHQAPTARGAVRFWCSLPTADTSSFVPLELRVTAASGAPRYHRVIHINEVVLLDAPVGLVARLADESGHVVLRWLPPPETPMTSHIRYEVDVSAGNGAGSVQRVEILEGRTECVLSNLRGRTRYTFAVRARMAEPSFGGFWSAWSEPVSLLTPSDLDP", "test": "Inhibition of [125I]EPO binding to immobilized EBP-Ig (EPO binding protein-Ig), scintillation Flash plate competition assay", "conditions": "for IC30 μM (Inhibition of EPO binding to EBP-Ig): 0–500 μM test compound; for % inh @ 50 μM (Inhibition of EPO binding to EBP-Ig): 50 μM test compound, average % inhibition", "from_the_text": "The interaction of biotin and streptavidin is frequently employed to capture and effectively immobilize reagents useful in assay protocols and has been employed here as a simple method to capture and immobilize EBP-Ig. EBP-Ig is initially randomly modified with an amine reactive derivative of biotin to produce biotinylated-EBP-Ig. Use of streptavidin coated plates allows the capture of the biotinylated EBP-Ig on the surface of a scintillant impregnated coated well (Flash plates, NEN-DuPont). […] The amount of light produced was quantified to estimate the amount of ligand binding. The specific assay format was suitable for the multi-well plate capacity of a Packard TopCount Microplate Scintillation counter.\nBiotinylated EBP-Ig was prepared as follows. EBP-Ig (3 mL, OD280 2.9) was exchanged into 50 mM sodium bicarbonate, pH 8.5 using a Centriprep 10 ultrafiltration device. The final volume of the exchanged protein was 1.2 mL (OD280 2.6, representing about 2 mg total protein). 10 μL of a 4 mg/ml solution of NHS-LC-Biotin (Pierce) was added and the reaction mixture placed on ice in the dark for two hours. Unreacted biotin was removed by exchange of the reaction buffer into PBS in a Centriprep 10 device and the protein reagent aliquoted and stored at −70° C.\nAll wells were adjusted to a final DMSO concentration of 5%. […] After all additions were made, the plate was covered with an adhesive top seal and placed in the dark at room temperature overnight. The next day all liquid was aspirated from the wells to limit analyte dependent quench of the signal, and the plates were counted on a Packard TOPCOUNT Microplate Scintillation Counter. […] Corrected total binding (CTB) was calculated as: TB−NSB=CTB. […] Table 1 lists the average % inhibition, and if determined the IC50 and IC30 values for compounds of Formula I, where the compound numbers refer to the compounds in the tables accompanying the preparative examples.", "key": {"[1]": {"conditions": "read-out: % inh @ 50 μM (Inhibition of EPO binding to EBP-Ig)"}, "[2]": {"conditions": "read-out: IC50, μM (Inhibition of EPO binding to EBP-Ig), 0.5 nM [125I]EPO, concentration reducing corrected total binding to 50%"}}, "note": "Read-outs that look alike come from different tables or passages of the source."}
{"smiles": "O=C(O)CC(C(=O)O)N(C/C=C/c1cccc(Oc2ccccc2)c1)Cc1cccc(Oc2ccccc2)c1", "note": "(stereo not shown) [compound 77]", "values": [{"measurement": "IC50", "result": 40, "unit": "µM"}, {"measurement": "IC30 μM (Inhibition of EPO binding to EBP-Ig)", "setting": "0.5 nM [125I]EPO", "result": 30, "unit": "µM"}, {"measurement": "inhibition at 50 µM", "setting": "[1]", "result": 52, "unit": "%"}, {"measurement": "inhibition at 50 µM", "setting": "read-out: EPO/EBP-Ig % inh @ 50 μM, Table 5, 50 μM", "result": 52, "unit": "%"}]}
{"smiles": "CCCCNC(=O)C(CCCCN)N(C/C=C/c1ccccc1)C/C=C/c1ccccc1", "note": "(stereo not shown) [compound 205]", "values": [{"measurement": "EPO/EBP-Ig % inh @ 50 μM", "setting": "50 μM compound, Table 10", "result": 26, "unit": "%"}]}
{"smiles": "CCCCNC(=O)C(CCCCNC(=O)c1ccccc1OC)N(C/C=C/c1ccccc1)C/C=C/c1ccccc1", "note": "(stereo not shown) [compound 209]", "values": [{"measurement": "EPO/EBP-Ig % inh @ 50 μM", "setting": "50 μM compound, Table 10, 50 µM", "result": 25, "unit": "%"}]}
{"smiles": "Cc1ccc(C(=O)Nc2cccc(CN(Cc3cccc(NC(=O)c4ccc(C)cc4)c3)C(CC(=O)O)C(=O)O)c2)cc1", "note": "(stereo not shown) [cpd 64, N,N-bis(3-(4-Methylbenzoyl)aminobenzyl)Asp-OH]", "values": [{"measurement": "EPO/EBP-Ig % inh @ 50 μM", "setting": "Table 4, 50 μM", "result": "−4", "unit": "%"}]}
{"smiles": "COC(=O)[C@H](CO)NCC=Cc1cccc(Oc2ccccc2)c1", "note": "[cpd 346, N-(3-Phenoxycinnamyl)Ser-OMe]", "values": [{"measurement": "EPO/EBP-Ig % inh @ 50 μM", "setting": "50 μM compound, Table 20A", "result": 28, "unit": "%"}]}
{"smiles": "COC(=O)C(CCC(=O)O)N(C/C=C/c1cccc(Oc2ccc(Cl)c(Cl)c2)c1)C/C=C/c1cccc(Oc2ccc(Cl)c(Cl)c2)c1", "note": "(stereo not shown) [compound 101]", "values": [{"measurement": "% inh @ 50 μM (Inhibition of EPO binding to EBP-Ig)", "setting": "0.5 nM [125I]EPO", "result": 32, "unit": "%"}, {"measurement": "EPO/EBP-Ig % inh @ 50 μM", "setting": "Table 6, 50 μM", "result": 32, "unit": "%"}]}
{"smiles": "O=C(O)CCCC(=O)NCCCCC(C(=O)NCCCOCCOCCOCCCNC(=O)C(CCCCNC(=O)CCCC(=O)O)N(Cc1ccc(OCc2ccccc2)cc1)Cc1ccc(OCc2ccccc2)cc1)N(Cc1ccc(OCc2ccccc2)cc1)Cc1ccc(OCc2ccccc2)cc1", "note": "(stereo not shown) [compound 272]", "values": [{"measurement": "IC30 μM (Inhibition of EPO binding to EBP-Ig)", "setting": "0.5 nM [125I]EPO", "result": 5, "unit": "µM"}, {"measurement": "IC50", "setting": "[2]", "result": 10, "unit": "µM"}]}
{"smiles": "COC(=O)[C@H](COC(C)(C)C)N(C/C=C/c1cccc(Oc2ccc(Cl)c(Cl)c2)c1)C/C=C/c1cccc(Oc2ccc(Cl)c(Cl)c2)c1", "note": "[compound 293]", "values": [{"measurement": "EPO/EBP-Ig % inh @ 50 μM", "setting": "50 μM compound, Table 16A", "result": 14, "unit": "%"}]}
{"smiles": "COC(=O)c1cccc(C=CCNC(Cc2ccc(OC)cc2)C(=O)OC)c1", "note": "(stereo not shown) [compound 363]", "values": [{"measurement": "IC30 μM (Inhibition of EPO binding to EBP-Ig)", "setting": "0.5 nM [125I]EPO", "result": 35, "unit": "µM"}, {"measurement": "inhibition at 50 µM", "setting": "[1]", "result": 33, "unit": "%"}, {"measurement": "inhibition at 50 µM", "setting": "read-out: EPO/EBP-Ig % inh @ 50 μM, 50 μM compound", "result": 33, "unit": "%"}, {"measurement": "IC50", "setting": "[2]", "result": 220, "unit": "µM"}]}
{"smiles": "O=C(O)C(F)(F)F.O=C(O)[C@H](CO)N(C/C=C/c1cccc(Oc2ccc(Cl)c(Cl)c2)c1)C/C=C/c1cccc(Oc2ccc(Cl)c(Cl)c2)c1", "note": "[compound 307]", "values": [{"measurement": "EPO/EBP-Ig % inh @ 50 μM", "setting": "50 μM compound, Table 16A", "result": 25, "unit": "%"}]}
{"smiles": "CC(C)(C)OC(=O)CN(C/C=C/c1cccc(Oc2ccccc2)c1)C/C=C/c1cccc(Oc2ccccc2)c1", "note": "[compound 311]", "values": [{"measurement": "EPO/EBP-Ig % inh @ 50 μM", "setting": "50 μM compound, Table 17A", "result": 5.3, "unit": "%"}]}
{"smiles": "O=C(NCCCCC(C(=O)O)N(C/C=C/c1ccccc1)C/C=C/c1ccccc1)OCc1ccccc1", "note": "(stereo not shown) [compound 172]", "values": [{"measurement": "EPO/EBP-Ig % inh @ 50 μM", "setting": "50 μM compound, Table 9", "result": 15, "unit": "%"}]}
{"smiles": "COc1ccc(CCNC(=O)C(CCCCNC(=O)Nc2ccc(Cl)c(Cl)c2)N(C/C=C/c2ccccc2)C/C=C/c2ccccc2)cc1", "note": "(stereo not shown) [compound 230]", "values": [{"measurement": "EPO/EBP-Ig % inh @ 50 μM", "setting": "50 μM compound, Table 10", "result": 42, "unit": "%"}, {"measurement": "% inh @ 50 μM (Inhibition of EPO binding to EBP-Ig)", "setting": "0.5 nM [125I]EPO", "result": 42, "unit": "%"}]}
{"smiles": "CC(C)(C)OC(=O)CCC(C(=O)OC(C)(C)C)N(C/C=C/c1cccc(Oc2cccc(C(F)(F)F)c2)c1)C/C=C/c1cccc(Oc2cccc(C(F)(F)F)c2)c1", "note": "(stereo not shown) [compound 103]", "values": [{"measurement": "EPO/EBP-Ig % inh @ 50 μM", "setting": "Table 6, 50 μM", "result": 17, "unit": "%"}]}
{"smiles": "CSCC[C@H](NC/C=C/c1ccc(C(F)(F)F)cc1)C(=O)O.O=C(O)C(F)(F)F", "note": "[compound 365]", "values": [{"measurement": "EPO/EBP-Ig % inh @ 50 μM", "setting": "50 μM compound", "result": 0, "unit": "%"}]}
{"smiles": "COC(=O)C(CCC(=O)O)N(C/C=C/c1ccccc1)C/C=C/c1ccccc1", "note": "(stereo not shown) [compound 92]", "values": [{"measurement": "EPO/EBP-Ig % inh @ 50 μM", "setting": "Table 6, 50 μM", "result": 20, "unit": "%"}]}
{"smiles": "Cc1ccc(Oc2cccc(CN(Cc3cccc(NCc4ccccc4F)c3)C(CC(=O)O)C(=O)O)c2)cc1", "note": "(stereo not shown) [compound 73]", "values": [{"measurement": "EPO/EBP-Ig % inh @ 50 μM", "setting": "Table 4, 50 μM", "result": "−13", "unit": "%"}]}
{"smiles": "CCOC(=O)CCC(C(=O)OC)N(C/C=C/c1ccccc1)C/C=C/c1ccccc1", "note": "(stereo not shown) [compound 94]", "values": [{"measurement": "EPO/EBP-Ig % inh @ 50 μM", "setting": "Table 6, 50 μM", "result": 25, "unit": "%"}]}
{"smiles": "C[C@H](O)[C@H](NC/C=C/c1ccc(C(F)(F)F)cc1)C(=O)O.O=C(O)C(F)(F)F", "note": "[compound 358]", "values": [{"measurement": "EPO/EBP-Ig % inh @ 50 μM", "setting": "50 μM compound", "result": 0, "unit": "%"}]}
{"smiles": "Cc1ccc(Oc2cccc(CN(Cc3cccc(NCc4cccc(C#N)c4)c3)C(CC(=O)O)C(=O)O)c2)cc1", "note": "(stereo not shown) [compound 74]", "values": [{"measurement": "EPO/EBP-Ig % inh @ 50 μM", "setting": "Table 4, 50 μM", "result": "−7", "unit": "%"}]}
{"smiles": "CCOC(=O)CCC(C(=O)OC)N(C/C=C/c1cccs1)C/C=C/c1cccs1", "note": "(stereo not shown) [compound 60]", "values": [{"measurement": "EPO/EBP-Ig % inh @ 50 μM", "setting": "Table 3, 50 μM", "result": 9, "unit": "%"}]}
{"smiles": "O=C(O)CC(C(=O)O)N(Cc1cccc(NCc2ccccc2)c1)Cc1cccc(Oc2ccccc2)c1", "note": "(stereo not shown) [compound 63]", "values": [{"measurement": "EPO/EBP-Ig % inh @ 50 μM", "setting": "Table 4, 50 μM", "result": 20, "unit": "%"}]}
